Assay results from ChEMBL document CHEMBL5727960, “Wee-1 inhibiting pyrazolopyrimidinone compounds” (2020).

Molecular target: Wee1-like protein kinase (Homo sapiens, UniProt P30291)
Test: Kinase Activity Assay: All reactions took place in 60 μL volumes in reaction buffer containing 40 mM Tris-HCl and 20 mM magnesium chloride, supplemented with 0.1 mg/mL bovine serum albumin and 2 mM DTT. Compounds were serially diluted in buffer and 5 μL of each concentration pipetted into a white 384 well plate (Sigma Aldrich M6186). A 5 μL aliquot of the Wee-1 enzyme was added to each well and the plate centrifuged for 1 min to ensure mixing of the enzyme and inhibitor. The plate was incubated at room temperature for 30 minutes before the addition of 2.0 μg/mL of substrate and 30 μM ATP in a 5 μL aliquot. The plate was centrifuged for one minute and incubated for 1 h at RT. 15 μL of ADP-Glo stop reagent was added to each well to quench the reaction and deplete unconverted ATP. The plate was incubated for a further 40 min in the dark at RT. 30 μL of ADP-Glo kinase detection reagent was added to each well, converting ADP to ATP, […]. The plate was shaken for 1 min, and incubated in the dark for an additional hour.

Chain of Wee1-like protein kinase (P30291 whole entry): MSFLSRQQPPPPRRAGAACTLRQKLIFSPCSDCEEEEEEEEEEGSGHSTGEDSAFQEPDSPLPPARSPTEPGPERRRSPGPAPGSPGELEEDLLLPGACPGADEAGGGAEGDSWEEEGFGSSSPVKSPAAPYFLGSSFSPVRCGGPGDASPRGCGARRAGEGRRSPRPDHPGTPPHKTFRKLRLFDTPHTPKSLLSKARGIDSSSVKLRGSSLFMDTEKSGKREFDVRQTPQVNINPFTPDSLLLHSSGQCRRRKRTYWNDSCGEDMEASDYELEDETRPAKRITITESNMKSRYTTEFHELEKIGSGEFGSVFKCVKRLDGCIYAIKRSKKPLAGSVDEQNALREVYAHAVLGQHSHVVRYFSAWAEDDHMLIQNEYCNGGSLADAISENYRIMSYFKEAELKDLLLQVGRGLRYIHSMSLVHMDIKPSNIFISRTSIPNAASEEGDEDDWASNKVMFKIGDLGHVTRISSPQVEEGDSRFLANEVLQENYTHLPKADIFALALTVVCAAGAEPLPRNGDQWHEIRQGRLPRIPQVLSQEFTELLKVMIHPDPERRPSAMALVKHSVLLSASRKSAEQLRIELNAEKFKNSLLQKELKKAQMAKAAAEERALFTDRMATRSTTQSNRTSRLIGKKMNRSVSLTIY

IC50: 0.8 nM
Compound: C=CCn1c(=O)c2cnc(Nc3ccc(N4CCOCC4)nc3)nc2n1-c1cccc(N=S(C)(C)=O)n1
